Results reported in ChEMBL document CHEMBL1201862, “PubChem BioAssay data set” (2004).
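48-hour exposure; five concentrations; linearly interpolated endpoints. Abbreviation: GI50, concentration required for 50% inhibition of growth.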 The source made the active and inactive calls. Cut-off read from the data, not from the text of the source: active = GI50 up to about 1.1 µM and inactive = higher. Where a SMILES comes first, the peptide text is derived from it. [ ]: non-standard residue; d: D form. The star is where a group is joined. NMeF = CN[CH](Cc1ccccc1)C(=O)O; NMeV = CN[CH](C(=O)O)C(C)C; Boc = CC(C)(C)OC(=O)*; OBn = c1ccc(CO*)cc1

Columns and labels:
Experiment in all cases: NCI anticancer screen, dose series, 48 h
786-0 = system: 786-0
A498 = system: A498
EKVX = system: EKVX
HOP-62 = system: HOP-62
LXFL 529 = system: LXFL 529
MOLT-4 = system: MOLT-4
OVCAR-4 = system: OVCAR-4
OVCAR-5 = system: OVCAR-5
OVCAR-8 = system: OVCAR-8
RPMI-8226 = system: RPMI-8226
SF-539 = system: SF-539
SK-OV-3 = system: SK-OV-3
TK-10 = system: TK-10
UACC-62 = system: UACC-62
SR = system: SR
BT-549 = system: BT-549
Hs-578T = system: Hs-578T
MDA-N = system: MDA-N
PC-3 = system: PC-3
T47D = system: T47D

Compound	GI50 (786-0)	GI50 (A498)	GI50 (EKVX)	GI50 (HOP-62)	GI50 (LXFL 529)	GI50 (MOLT-4)	GI50 (OVCAR-4)	GI50 (OVCAR-5)	GI50 (OVCAR-8)	GI50 (RPMI-8226)	GI50 (SF-539)	GI50 (SK-OV-3)	GI50 (TK-10)	GI50 (UACC-62)	GI50 (SR)	GI50 (BT-549)	GI50 (Hs-578T)	GI50 (MDA-N)	GI50 (PC-3)	GI50 (T47D)
CCC1(CC)C(=O)NC(=O)NC1=S	> 100 µM (inactive)	> 100 µM (inactive)	> 100 µM (inactive)	> 100 µM (inactive)	> 100 µM (inactive)	> 100 µM (inactive)	> 100 µM (inactive)	> 100 µM (inactive)	> 100 µM (inactive)	> 100 µM (inactive)	> 100 µM (inactive)	> 100 µM (inactive)	> 100 µM (inactive)	> 100 µM (inactive)						
COc1ccc(NC(=O)CC2SC(Nc3ccc(Cl)cc3C)=NC2=O)c([N+](=O)[O-])c1 (stereo not drawn)	> 100 µM (inactive)	> 100 µM (inactive)	> 100 µM (inactive)		> 100 µM (inactive)	> 100 µM (inactive)	> 100 µM (inactive)	> 100 µM (inactive)	> 100 µM (inactive)	> 100 µM (inactive)	> 100 µM (inactive)		> 100 µM (inactive)	> 100 µM (inactive)	> 100 µM (inactive)					
c1ccc(CNn2nnc3ccccc32)cc1	> 100 µM (inactive)		> 100 µM (inactive)	> 100 µM (inactive)	> 100 µM (inactive)	> 100 µM (inactive)	> 100 µM (inactive)	> 100 µM (inactive)	> 100 µM (inactive)	> 100 µM (inactive)		> 100 µM (inactive)	> 100 µM (inactive)	> 100 µM (inactive)						
O=c1c2c(c1=O)-c1ccccc1CN2	> 100 µM (inactive)	> 100 µM (inactive)	> 100 µM (inactive)	> 100 µM (inactive)	> 100 µM (inactive)	> 100 µM (inactive)	> 100 µM (inactive)	> 100 µM (inactive)	> 100 µM (inactive)	> 100 µM (inactive)	> 100 µM (inactive)	> 100 µM (inactive)	> 100 µM (inactive)	> 100 µM (inactive)						
CC(C)OP(=O)(OC(C)C)/C(=N/Nc1ccccc1[N+](=O)[O-])NCCN/C(=N\Nc1ccccc1[N+](=O)[O-])P(=O)(OC(C)C)OC(C)C	33 µM (inactive)	49.5 µM (inactive)	28.9 µM (inactive)	52.8 µM (inactive)	19.5 µM (inactive)	43.2 µM (inactive)	48.1 µM (inactive)	24.2 µM (inactive)	39.5 µM (inactive)	28.2 µM (inactive)	38.1 µM (inactive)		39.1 µM (inactive)	19.2 µM (inactive)						
COc1ccc([C@@H]2CC(=O)NCCCNCCCCNCCCN2)cc1	> 100 µM (inactive)	> 100 µM (inactive)	> 100 µM (inactive)	> 100 µM (inactive)	> 100 µM (inactive)	> 100 µM (inactive)	> 100 µM (inactive)	> 100 µM (inactive)	> 100 µM (inactive)	> 100 µM (inactive)	> 100 µM (inactive)	> 100 µM (inactive)	> 100 µM (inactive)	> 100 µM (inactive)	> 100 µM (inactive)					
[O-][n+]1c2c([n+]([O-])c3ccccc31)CCCCCCCCCC2	> 100 µM (inactive)		> 100 µM (inactive)		68.1 µM (inactive)	45.5 µM (inactive)				> 100 µM (inactive)	> 100 µM (inactive)	> 100 µM (inactive)	> 100 µM (inactive)	> 100 µM (inactive)	63.4 µM (inactive)					
O=P1(Oc2ccccc2)C(c2ccccc2)C(c2ccccc2)=NN1c1ccccc1 (stereo not drawn)	33.7 µM (inactive)	29.6 µM (inactive)	37.3 µM (inactive)	24.6 µM (inactive)	19.8 µM (inactive)	22 µM (inactive)	31.6 µM (inactive)	25.4 µM (inactive)	37 µM (inactive)		18.4 µM (inactive)	22.6 µM (inactive)	38.7 µM (inactive)	18.2 µM (inactive)						
O=C(O)c1ccc(C2C3C=CC(C3)C2[N+](=O)[O-])cc1 (stereo not drawn)	> 100 µM (inactive)	> 100 µM (inactive)	> 100 µM (inactive)	> 100 µM (inactive)	> 100 µM (inactive)	> 100 µM (inactive)			> 100 µM (inactive)	> 100 µM (inactive)	> 100 µM (inactive)	> 100 µM (inactive)	> 100 µM (inactive)	> 100 µM (inactive)						
C=C(NC(=O)C(=C)NC(=O)c1csc(C2=NC3c4csc(n4)C4NC(=O)c5csc(n5)C(C(C)(O)C(C)O)NC(=O)C5CSC(=N5)/C(=C/C)NC(=O)C(C(C)O)NC(=O)c5csc(n5)C3(CC2)NC(=O)C(C)NC(=O)C(=C)NC(=O)C(C)NC(=O)C(C(C)CC)NC2C=Cc3c(C(C)O)cc(nc3C2O)C(=O)OC4C)n1)C(N)=O (stereo not drawn)	1.54 µM (inactive)	1.74 µM (inactive)	18.2 µM (inactive)	9.35 µM (inactive)	0.449 µM (active)		19.9 µM (inactive)	11.8 µM (inactive)		0.644 µM (active)	1.73 µM (inactive)	15 µM (inactive)	2.75 µM (inactive)	1.24 µM (inactive)	0.302 µM (active)					
O=Cc1ccccc1COC(=O)c1cc(C(=O)OCc2ccccc2C=O)c(C(=O)OCc2ccccc2C=O)cc1C(=O)OCc1ccccc1C=O	23.6 µM (inactive)	> 100 µM (inactive)	> 100 µM (inactive)		46.3 µM (inactive)	30.3 µM (inactive)	> 100 µM (inactive)	> 100 µM (inactive)	80 µM (inactive)	43.7 µM (inactive)	> 100 µM (inactive)	> 100 µM (inactive)	61.9 µM (inactive)	> 100 µM (inactive)	29.5 µM (inactive)					
Cc1c(C)c([N+](=O)[O-])c2c(c1N)C(=O)c1ccccc1C2=O	65.5 µM (inactive)	> 100 µM (inactive)	> 100 µM (inactive)	> 100 µM (inactive)	> 100 µM (inactive)	> 100 µM (inactive)		> 100 µM (inactive)	> 100 µM (inactive)	> 100 µM (inactive)	> 100 µM (inactive)	> 100 µM (inactive)	> 100 µM (inactive)	> 100 µM (inactive)	> 100 µM (inactive)					
C[C@H]1CC(=O)C2=CCCC3(SCCCS3)[C@@H]2[C@H]1CO	> 100 µM (inactive)	> 100 µM (inactive)	> 100 µM (inactive)	> 100 µM (inactive)	> 100 µM (inactive)	44.9 µM (inactive)	> 100 µM (inactive)	> 100 µM (inactive)	> 100 µM (inactive)	70.8 µM (inactive)	> 100 µM (inactive)	> 100 µM (inactive)	> 100 µM (inactive)	> 100 µM (inactive)	54.3 µM (inactive)					
CC(=O)O[C@]12CCCC1C1(O)C(O)CCCC12 (stereo partly drawn)	> 100 µM (inactive)		> 100 µM (inactive)	> 100 µM (inactive)	> 100 µM (inactive)	> 100 µM (inactive)	> 100 µM (inactive)		> 100 µM (inactive)	> 100 µM (inactive)		> 100 µM (inactive)	> 100 µM (inactive)	> 100 µM (inactive)	> 100 µM (inactive)					
O=C1C2c3[nH]c4ccccc4c3C3CCCCC3C2C(=O)N1c1ccccc1 (stereo not drawn)	34.2 µM (inactive)	36.2 µM (inactive)	> 100 µM (inactive)		> 100 µM (inactive)	64.7 µM (inactive)	45.1 µM (inactive)	> 100 µM (inactive)	> 100 µM (inactive)	> 100 µM (inactive)	34 µM (inactive)	20.7 µM (inactive)	46.5 µM (inactive)	> 100 µM (inactive)	> 100 µM (inactive)					
COc1cc2oc(=O)ccc2cc1C(=O)CC(C)C	> 100 µM (inactive)	> 100 µM (inactive)	94.8 µM (inactive)	> 100 µM (inactive)		57.8 µM (inactive)	71.1 µM (inactive)	> 100 µM (inactive)	> 100 µM (inactive)	> 100 µM (inactive)	> 100 µM (inactive)	> 100 µM (inactive)	> 100 µM (inactive)	> 100 µM (inactive)	62.4 µM (inactive)	71.4 µM (inactive)	38.5 µM (inactive)	> 100 µM (inactive)	> 100 µM (inactive)	> 100 µM (inactive)
COc1cc2c(cc1[N+](=O)[O-])C(=O)C(Br)(Br)CCC2	1.26 µM (inactive)	15.3 µM (inactive)	2.12 µM (inactive)	3.38 µM (inactive)		0.354 µM (active)	4.62 µM (inactive)	1.91 µM (inactive)	2.25 µM (inactive)	1.8 µM (inactive)	1.9 µM (inactive)	3.21 µM (inactive)	2.54 µM (inactive)	3.43 µM (inactive)	0.743 µM (active)	2.12 µM (inactive)	5.75 µM (inactive)	3.09 µM (inactive)	5 µM (inactive)	2.68 µM (inactive)
O=c1ncccn1C1OC(CO)C(O)C1O (stereo not drawn)	> 100 µM (inactive)	> 100 µM (inactive)	> 100 µM (inactive)		> 100 µM (inactive)		> 100 µM (inactive)	> 100 µM (inactive)	> 100 µM (inactive)	> 100 µM (inactive)		> 100 µM (inactive)	> 100 µM (inactive)	> 100 µM (inactive)						
CC(C)C(NC(=O)OC(C)(C)C)C(=O)N(C)C(Cc1ccccc1)C(=O)N(C)C(C(=O)N(C)C(C(=O)OCc1ccccc1)C(C)C)C(C)C (stereo not drawn) (Boc-V[NMeF][NMeV][NMeV]-OBn; configuration not given here)	> 100 µM (inactive)		89.1 µM (inactive)	> 100 µM (inactive)	7.6 µM (inactive)	4.81 µM (inactive)			> 100 µM (inactive)	10.3 µM (inactive)	> 100 µM (inactive)		> 100 µM (inactive)	> 100 µM (inactive)	20.8 µM (inactive)					
